As a reminder, the EC50 is the concentration that produces a half-maximal response.

This is an account of results in patent US20240124491A1, “METHODS AND COMPOUNDS FOR TREATING FRIEDREICH'S ATAXIA” (Design Therapeutics, Inc., priority 2021, published 2024).

Structures are written as SMILES.

The test relates to human FXN. Description: EC50 assay: FXN mRNA expression by qRT-PCR in GM15850 cells after 48 hrs compound treatment. Format: cell-based. Conditions: Homo sapiens, 48 hrs incubation, hFXN expression normalized to hGAPDH (qRT-PCR), read-out: EC50 WT (nM, 48 hr). The method, then:
Cell culture: Cells were cultured in RPMI1640 medium+15% FBS. Cells were maintained at a density between 2e5/mL and 1e6/mL. Cells were centrifuged, resuspended in fresh medium, counted and plated at 150,000 cells per well in 100 uL in a non-coated, flat bottom tissue culture plate.
Compound treatment: 10 mM stock solution of FA GeneTAC was diluted 1:10 in DMSO followed by a 1:100 dilution in growth medium. Working solution was then further diluted to 10× desired final concentration of 150 nM. Compound was then diluted at a 1:3 ratio into growth medium containing 0.01% DMSO. 5-point, 3-fold dose response curve was generated. 11 μL of 1OX compound was added to wells containing 100 μL cell suspension of GM15850. 11 μL growth medium containing 0.01% DMSO was added to all wells not treated with FA GeneTAC. Cells were allowed to incubate for 48 hrs prior to cell lysis using guanidine isothiocyanate solution.
RNA isolation: Total RNA was isolated and purified in 384-well column filter plates using chaotropic salt.
qRT-PCR: qRT-PCR reactions were assembled using AgPath-ID reagents (Thermo Fisher) using 6 uL mastermix and 4 μL RNA. qRT-PCR TaqMan primer probe sets against human FXN (Assay ID Hs01075496_m1) and human GAPDH (Assay ID Hs00266705_g1) were used to measure the intended targets. qRT-PCR was run on the ThermoFisher QuantStudio 6 PRO instrument using the manufacturer's recommended cycling conditions.
Data analysis: qPCR data was analyzed using Thermo Fisher Design and Analysis software. Data was exported to Excel and hFXN expression was normalized to hGAPDH expression
A<100 nM; B is 100 nM to 500 nM; C>500 nM.
In general terms: Quantitative PCR measures a nucleic acid by following its amplification.

Take `COc1ccc2c(c1)C(c1ccc(Cl)cc1)=N[C@@H](CC(=O)N1CCN(CCOCCOCCOCCN3CCN(CCOCCOCCOCCNC(=O)CCNC(=O)c4nc(NC(=O)CCNC(=O)c5cc(NC(=O)c6nc(NC(=O)CCNC(=O)c7cc(NC(=O)c8nccn8C)cn7C)cn6C)cn5C)cn4C)CC3)CC1)c1nnc(C)n1-2` [Compound 28]: the EC50 is > 500 nM.

Take `Cc1sc2c(c1C)C(c1ccc(Cl)cc1)=N[C@@H](CC(=O)NC1CCN(CCOCCOCCOCCN3CCN(CCN4CCN(CCOCCNC(=O)CCNC(=O)c5nc(NC(=O)CCNC(=O)c6cc(NC(=O)c7nc(NC(=O)CCNC(=O)c8cc(NC(=O)c9nccn9C)cn8C)cn7C)cn6C)cn5C)CC4)CC3)CC1)c1nnc(C)n1-2` [Compound 29]: the EC50 is > 500 nM.

As for `Cc1sc2c(c1C)C(c1ccc(Cl)cc1)=N[C@@H](CC(=O)NC1CCN(CCOCCOCCOCCN3CCN(CC4CCN(CCOCCNC(=O)CCNC(=O)c5nc(NC(=O)CCNC(=O)c6cc(NC(=O)c7nc(NC(=O)CCNC(=O)c8cc(NC(=O)c9nccn9C)cn8C)cn7C)cn6C)cn5C)CC4)CC3)CC1)c1nnc(C)n1-2` [Compound 33], the EC50 is > 500 nM.

On to `COc1ccc2c(c1)C(c1ccc(Cl)cc1)=N[C@@H](CC(=O)NC1CCN(CCOCCOCCOCCN3CCN(CC4CCN(CCOCCNC(=O)CCNC(=O)c5nc(NC(=O)CCNC(=O)c6cc(NC(=O)c7nc(NC(=O)CCNC(=O)c8cc(NC(=O)c9nccn9C)cn8C)cn7C)cn6C)cn5C)CC4)CC3)CC1)c1nnc(C)n1-2` [Compound 34], for which the EC50 was > 500 nM.

For the compound `Cc1sc2c(c1C)C(c1ccc(Cl)cc1)=N[C@@H](CC(=O)NC1CCN(CCOCCN3CCC(CN4CCN(CCOCCOCCOCCNC(=O)CCNC(=O)c5nc(NC(=O)CCNC(=O)c6cc(NC(=O)c7nc(NC(=O)CCNC(=O)c8cc(NC(=O)c9nccn9C)cn8C)cn7C)cn6C)cn5C)CC4)CC3)CC1)c1nnc(C)n1-2` [Compound 35], the EC50 was in the range of 100 to 500 nM.

On to `Cc1sc2c(c1C)C(c1ccc(Cl)cc1)=N[C@H](CC(=O)NC1CCN(CCOCCOCCOCCOCCOCCC(=O)NCCCN(C)CCCNC(=O)CCNC(=O)c3nc(NC(=O)CCNC(=O)c4cc(NC(=O)c5nc(NC(=O)CCNC(=O)c6cc(NC(=O)c7nccn7C)cn6C)cn5C)cn4C)cn3C)CC1)c1nnc(C)n1-2` [Compound 39], for which the EC50 was > 500 nM.

For `Cc1sc2c(c1C)C(c1ccc(Cl)cc1)=N[C@@H](CC(=O)N1CCC(C#CC#CCNCCOCCOCCOCCOCCOCCNC(=O)CCNC(=O)c3nc(NC(=O)CCNC(=O)c4cc(NC(=O)c5nc(NC(=O)CCNC(=O)c6cc(NC(=O)c7nccn7C)cn6C)cn5C)cn4C)cn3C)CC1)c1nnc(C)n1-2` [Compound 40], the EC50 was < 100 nM.

In the case of `COc1ccc2c(c1)C(c1ccc(Cl)cc1)=N[C@@H](CC(=O)N1CCC(C#CC#CCNCCOCCOCCOCCOCCOCCNC(=O)CCNC(=O)c3nc(NC(=O)CCNC(=O)c4cc(NC(=O)c5nc(NC(=O)CCNC(=O)c6cc(NC(=O)c7nccn7C)cn6C)cn5C)cn4C)cn3C)CC1)c1nnc(C)n1-2` [Compound 41], the EC50 is < 100 nM.

As for `Cc1sc2c(c1C)C(c1ccc(Cl)cc1)=N[C@@H](CC(=O)Nc1ccc(C#CC#CCN(CCN3CCN(C)CC3)C(=O)COCCOCCOCCOCCOCCNC(=O)CCNC(=O)c3nc(NC(=O)CCNC(=O)c4cc(NC(=O)c5nc(NC(=O)CCNC(=O)c6cc(NC(=O)c7nccn7C)cn6C)cn5C)cn4C)cn3C)cc1)c1nnc(C)n1-2` [Compound 42], the EC50 was < 100 nM.

In the case of `Cc1sc2c(c1C)C(c1ccc(Cl)cc1)=N[C@@H](CC(=O)Nc1ccc(C#CC#CCN(CCOCCOCCOCCOCCOCCNC(=O)CCNC(=O)c3nc(NC(=O)CCNC(=O)c4cc(NC(=O)c5nc(NC(=O)CCNC(=O)c6cc(NC(=O)c7nccn7C)cn6C)cn5C)cn4C)cn3C)CCC3CCN(C)CC3)cc1)c1nnc(C)n1-2` [Compound 43], the half-maximal effective concentration (EC50) was 100 to 500 nM.

In the case of `COc1ccc2c(c1)C(c1ccc(Cl)cc1)=N[C@@H](CC(=O)N1CCN(CC3CCN(CCOCCOCCOCCOCCOCCOCCOCCNC(=O)CCNC(=O)c4nc(NC(=O)CCNC(=O)c5cc(NC(=O)c6nc(NC(=O)CCNC(=O)c7cc(NC(=O)c8nccn8C)cn7C)cn6C)cn5C)cn4C)CC3)CC1)c1nnc(C)n1-2` [Compound 46], the concentration for a half-maximal effect (EC50) was > 500 nM.

For the compound `Cc1cc(F)cc(C)c1Oc1ccc(C(C)(C)O)cc1-c1cn(C)c(=O)c2[nH]c(C(=O)NC3CCN(CCOCCOCCOCCOCCOCCOCCOCCOCCNC(=O)CCNC(=O)c4nc(NC(=O)CCNC(=O)c5cc(NC(=O)c6nc(NC(=O)CCNC(=O)c7cc(NC(=O)c8nccn8C)cn7C)cn6C)cn5C)cn4C)CC3)cc12` [Compound 47], the EC50 was < 100 nM.

Consider `CC(=O)Nc1c(F)cc(C(=O)NC2CCN(CCOCCOCCOCCOCCOCCOCCOCCOCCNC(=O)CCNC(=O)c3nc(NC(=O)CCNC(=O)c4cc(NC(=O)c5nc(NC(=O)CCNC(=O)c6cc(NC(=O)c7nccn7C)cn6C)cn5C)cn4C)cn3C)CC2)cc1O[C@@H](C)c1ccccc1` [Compound 48], for which the EC50 is > 500 nM.

Regarding `Cc1cc(F)cc(C)c1Oc1ccc(C(C)(C)O)cc1-c1cn(C)c(=O)c2[nH]c(C(=O)NCCOCCOCCOCCOCCOCCOCCOCCOCCNC(=O)CCNC(=O)c3nc(NC(=O)CCNC(=O)c4cc(NC(=O)c5nc(NC(=O)CCNC(=O)c6cc(NC(=O)c7nccn7C)cn6C)cn5C)cn4C)cn3C)cc12` [Compound 50], the EC50 is < 100 nM.

In the case of `Cc1sc2c(c1C)C(c1ccc(Cl)cc1)=N[C@@H](CC(=O)N1CCC(N3CCN(CCOCCOCCOCCOCCOCCOCCNC(=O)CCNC(=O)c4nc(NC(=O)CCNC(=O)c5cc(NC(=O)c6nc(NC(=O)CCNC(=O)c7cc(NC(=O)c8nccn8C)cn7C)cn6C)cn5C)cn4C)CC3)CC1)c1nnc(C)n1-2` [Compound 51], the EC50 lay in the range of 100 to 500 nM.

Regarding `COc1ccc2c(c1)C(c1ccc(Cl)cc1)=N[C@@H](CC(=O)N1CCC(N3CCN(CCOCCOCCOCCOCCOCCOCCNC(=O)CCNC(=O)c4nc(NC(=O)CCNC(=O)c5cc(NC(=O)c6nc(NC(=O)CCNC(=O)c7cc(NC(=O)c8nccn8C)cn7C)cn6C)cn5C)cn4C)CC3)CC1)c1nnc(C)n1-2` [Compound 52], the EC50 was > 500 nM.

For `Cc1sc2c(c1C)C(c1ccc(Cl)cc1)=N[C@@H](CC(=O)N1CCN(C3CCN(CCOCCOCCOCCOCCOCCOCCNC(=O)CCNC(=O)c4nc(NC(=O)CCNC(=O)c5cc(NC(=O)c6nc(NC(=O)CCNC(=O)c7cc(NC(=O)c8nccn8C)cn7C)cn6C)cn5C)cn4C)CC3)CC1)c1nnc(C)n1-2` [Compound 53], the EC50 was 100 to 500 nM.

Turning to `COc1ccc2c(c1)C(c1ccc(Cl)cc1)=N[C@@H](CC(=O)N1CCN(C3CCN(CCOCCOCCOCCOCCOCCOCCNC(=O)CCNC(=O)c4nc(NC(=O)CCNC(=O)c5cc(NC(=O)c6nc(NC(=O)CCNC(=O)c7cc(NC(=O)c8nccn8C)cn7C)cn6C)cn5C)cn4C)CC3)CC1)c1nnc(C)n1-2` [Compound 54], the EC50 is > 500 nM.

Consider `Cc1sc2c(c1C)C(c1ccc(Cl)cc1)=N[C@@H](CC(=O)N1CCC(CN3CCN(CCOCCOCCOCCOCCOCCOCCOCCNC(=O)CCNC(=O)c4nc(NC(=O)CCNC(=O)c5cc(NC(=O)c6nc(NC(=O)CCNC(=O)c7cc(NC(=O)c8nccn8C)cn7C)cn6C)cn5C)cn4C)CC3)CC1)c1nnc(C)n1-2` [Compound 55], for which the EC50 lay in the range of 100 to 500 nM.

In the case of `COc1ccc2c(c1)C(c1ccc(Cl)cc1)=N[C@@H](CC(=O)N1CCC(CN3CCN(CCOCCOCCOCCOCCOCCOCCOCCNC(=O)CCNC(=O)c4nc(NC(=O)CCNC(=O)c5cc(NC(=O)c6nc(NC(=O)CCNC(=O)c7cc(NC(=O)c8nccn8C)cn7C)cn6C)cn5C)cn4C)CC3)CC1)c1nnc(C)n1-2` [Compound 56], the EC50 fell in the range of 100 to 500 nM.

`Cc1sc2c(c1C)C(c1ccc(Cl)cc1)=N[C@@H](CC(=O)N1CCC(CN3CCN(CCOCCOCCOCCOCCOCCOCCNC(=O)CCNC(=O)c4nc(NC(=O)CCNC(=O)C5=CC(NC(=O)c6nc(NC(=O)CCNC(=O)c7cc(NC(=O)c8nccn8C)cn7C)cn6C)CN5C)cn4C)CC3)CC1)c1nnc(C)n1-2` (stereo partly shown) [Compound 57]: the EC50 was in the range of 100 to 500 nM.

For the compound `COCCOCCOCCOCCOCCOCCOCCOCCOCCOCCOCCOCCOCCOCCOCCOCCC(=O)N(CC#CC#Cc1ccc(NC(=O)C[C@@H]2N=C(c3ccc(Cl)cc3)c3c(sc(C)c3C)-n3c(C)nnc32)cc1)CCOCCOCCOCCOCCOCCNC(=O)CCNC(=O)c1nc(NC(=O)CCNC(=O)c2cc(NC(=O)c3nc(NC(=O)CCNC(=O)c4cc(NC(=O)c5nccn5C)cn4C)cn3C)cn2C)cn1C` [Compound 58], the EC50 fell in the range of 100 to 500 nM.

Consider `Cc1sc2c(c1C)C(c1ccc(Cl)cc1)=N[C@@H](CC(=O)N1CCC(C#CC#CC3CCN(CCOCCOCCOCCOCCNC(=O)CCNC(=O)c4nc(NC(=O)CCNC(=O)c5cc(NC(=O)c6nc(NC(=O)CCNC(=O)c7cc(NC(=O)c8nccn8C)cn7C)cn6C)cn5C)cn4C)CC3)CC1)c1nnc(C)n1-2` [Compound 60], for which the EC50 is < 100 nM.

For `COc1ccc2c(c1)C(c1ccc(Cl)cc1)=N[C@@H](CC(=O)N1CCC(C#CC#CC3CCN(CCOCCOCCOCCOCCNC(=O)CCNC(=O)c4nc(NC(=O)CCNC(=O)c5cc(NC(=O)c6nc(NC(=O)CCNC(=O)c7cc(NC(=O)c8nccn8C)cn7C)cn6C)cn5C)cn4C)CC3)CC1)c1nnc(C)n1-2` [Compound 61], the EC50 was < 100 nM.

In the case of `Cc1sc2c(c1C)C(c1ccc(Cl)cc1)=N[C@@H](CC(=O)N1CC(N3CCN(CCOCCOCCOCCOCCOCCOCCNC(=O)CCNC(=O)c4nc(NC(=O)CCNC(=O)c5cc(NC(=O)c6nc(NC(=O)CCNC(=O)c7cc(NC(=O)c8nccn8C)cn7C)cn6C)cn5C)cn4C)CC3)C1)c1nnc(C)n1-2` [Compound 62], the EC50 fell in the range of 100 to 500 nM.
